Patent US20260042743A1, “SUBSTITUTED BENZIMIDAZOLES FOR TREATING VIRAL DISEASES” (COUNCIL OF SCIENTIFIC AND INDUSTRIAL RESEARCH, priority 2022, published 2026)

Test system: SARS-CoV-2
Assay: cell-based anti-viral assay using Vero E6 cell line, viral RNA by qRT-PCR
Details: Vero E6 cells, 48 h; for ΔCt (1 μM) / inhibition at 1 µM: 1 μM compound; for ΔCt (1 μM) / ΔCt (5 μM): increase in Ct vs no-drug control; for ΔCt (5 μM) / inhibition at 5 µM: 5 μM compound; for inhibition at 1 µM / inhibition at 5 µM: Severe acute respiratory syndrome coronavirus 2, Vero C1008, calculated from ΔCt; for inhibition at 1 µM: read-out: % SARS-CoV-2 Inactivation (1 μM); for inhibition at 5 µM: read-out: % SARS-CoV-2 Inactivation (5 μM)

Row | SMILES | ΔCt (1 μM) | ΔCt (5 μM) | inhibition at 1 µM | inhibition at 5 µM
1 | FC(F)(F)c1cc(Nc2nc3c(C(F)(F)F)cccc3[nH]2)cc(C(F)(F)F)c1 [Example 34, N-(3,5-bis(trifluoromethyl)phenyl)-4-(trifluoromethyl)-1H-benzo[d]imidazol-2-amine] | 13.1 | 15.1 | > 99.9% | 100%
2 | FC(F)(F)c1cccc(Nc2nc3c(C(F)(F)F)cccc3[nH]2)c1 [Example 35, 4-(trifluoromethyl)-N-(3-(trifluoromethyl)phenyl)-1H-benzo[d]imidazol-2-amine] | 1.7 | 7.5 | < 3% | 99%
3 | FC(F)(F)c1cc(C(F)(F)F)c2nc(NC3CCOCC3)[nH]c2c1 [Example 7, N-(tetrahydro-2H-pyran-4-yl)-4,6-bis(trifluoromethyl)-1H-benzo[d]imidazol-2-amine] | 0.9 | −0.32 | < 3% | < 3%
4 | C[C@@H](Nc1nc2c(C(F)(F)F)cc(C(F)(F)F)cc2[nH]1)c1cccc2ccccc12 [Example 19, (R)—N-(1-(naphthalen-1-yl)ethyl)-4,6-bis(trifluoromethyl)-1H-benzo[d]imidazol-2-amine] | 1.9 | 1.9 | < 3% | < 3%
5 | COc1ccc2nc(Nc3cc(C(F)(F)F)cc(C(F)(F)F)c3)[nH]c2c1 [Example 37, N-(3,5-bis(trifluoromethyl)phenyl)-6-methoxy-1H-benzo[d]imidazol-2-amine] | 5 | 4.3 | > 95% | > 90%
6 | FC(F)(F)c1cccc(Nc2nc3ccc(C(F)(F)F)cc3[nH]2)c1 [Example 32, 6-(trifluoromethyl)-N-(3-(trifluoromethyl)phenyl)-1H-benzo[d]imidazol-2-amine] | 0.2 | 9.3 | < 3% | > 99%
7 | Cn1c(Nc2cc(C(F)(F)F)cc(C(F)(F)F)c2)nc2cc(F)c(F)cc21 [Example 39, N-(3,5-bis(trifluoromethyl)phenyl)-5,6-difluoro-1-methyl-1H-benzo[d]imidazol-2-amine] | 0.5 | 1 | < 3% | < 3%
8 | CN(c1cc(C(F)(F)F)cc(C(F)(F)F)c1)c1nc2cccc(C(F)(F)F)c2[nH]1 [Example 44, N-(3,5-bis(trifluoromethyl)phenyl)-N-methyl-7-(trifluoromethyl)-1H-benzo[d]imidazol-2-amine] | 1.4 | 5 | < 3% | > 95%
9 | Fc1cc2nc(Nc3ccc(C(F)(F)F)cc3)[nH]c2cc1F [Example 12, 5,6-difluoro-N-(4-(trifluoromethyl)phenyl)-1H-benzo[d]imidazol-2-amine] | 2.4 | 3.5 | < 3% | 90%
10 | Fc1cc2nc(Nc3cc(C(F)(F)F)cc(C(F)(F)F)c3)[nH]c2cc1F [Example 11, N-(3,5-bis(trifluoromethyl)phenyl)-5,6-difluoro-1H-benzo[d]imidazol-2-amine] | 5.8 | 10.3 | > 95% | 99.9%
11 | COc1ccc(Nc2nc3cc(F)c(F)cc3[nH]2)cc1Br [Example 9, N-(3-bromo-4-methoxyphenyl)-5,6-difluoro-1H-benzo[d]imidazol-2-amine] | −1.1 | 1 | < 3% | < 3%
12 | FC(F)(F)c1ccc(Nc2nc3ccc(C(F)(F)F)cc3[nH]2)cc1 [Example 33, 6-(trifluoromethyl)-N-(4-(trifluoromethyl)phenyl)-1H-benzo[d]imidazol-2-amine] | 1.4 | 14.3 | < 3% | 100%
13 | Fc1cc2nc(Nc3cccc(C(F)(F)F)c3)[nH]c2cc1F [Example 10, 5,6-difluoro-N-(3-(trifluoromethyl)phenyl)-1H-benzo[d]imidazol-2-amine] | 2.4 | 2.4 | < 3% | < 3%
14 | Cn1c(Nc2ccccc2)nc2cc(F)c(F)cc21 [Example 38, 5,6-difluoro-1-methyl-N-phenyl-1H-benzo[d]imidazol-2-amine] | 0.4 | −0.1 | < 3% | < 3%
15 | CN(c1cccc(C(F)(F)F)c1)c1nc2c(C(F)(F)F)cc(C(F)(F)F)cc2[nH]1 [Example 40, N-methyl-4,6-bis(trifluoromethyl)-N-(3-(trifluoromethyl)phenyl)-1H-benzo[d]imidazol-2-amine] | 5 | 12.2 | > 95% | > 99.9%
16 | CC(C)Nc1nc2c(C(F)(F)F)cc(C(F)(F)F)cc2[nH]1 [Example 15, N-isopropyl-4,6-bis(trifluoromethyl)-1H-benzo[d]imidazol-2-amine] | 3.1 | 4.2 | 90% | > 90%
17 | CC1(Nc2nc3c(C(F)(F)F)cc(C(F)(F)F)cc3[nH]2)CCC1 [Example 21, N-(1-methylcyclobutyl)-4,6-bis(trifluoromethyl)-1H-benzo[d]imidazol-2-amine] | 3.6 | 9.3 | > 90% | > 99%
18 | Fc1cc(F)cc(Nc2nc3c(C(F)(F)F)cc(C(F)(F)F)cc3[nH]2)c1 [Example 26, N-(3,5-difluorophenyl)-4,6-bis(trifluoromethyl)-1H-benzo[d]imidazol-2-amine] | 3.4 | 9.4 | 90% | > 99%
19 | Fc1cc2nc(Nc3ccccc3)[nH]c2cc1F [Example 8, 5,6-difluoro-N-phenyl-1H-benzo[d]imidazol-2-amine] | 3.1 | 4.2 | 90% | > 90%
20 | FC(F)(F)c1cc(C(F)(F)F)c2nc(N3CCCCC3)[nH]c2c1 [Example 16, 2-(piperidin-1-yl)-4,6-bis(trifluoromethyl)-1H-benzo[d]imidazole] | 0.8 | 1 | < 3% | < 3%
21 | CN(c1cccc(C(F)(F)F)c1)c1nc2cccc(C(F)(F)F)c2[nH]1 [Example 42, N-methyl-7-(trifluoromethyl)-N-(3-(trifluoromethyl)phenyl)-1H-benzo[d]imidazol-2-amine] | 1 | 2.1 | < 3% | < 3%
22 | FC(F)(F)c1cc(C(F)(F)F)c2nc(NCc3ccccc3)[nH]c2c1 [Example 6, N-benzyl-4,6-bis(trifluoromethyl)-1H-benzo[d]imidazol-2-amine] | 2 | 1.6 | < 3% | < 3%
